Patent US7276510B2, “HIV replication inhibitors” (Janssen Pharmaceutica, Inc., priority 2000, dated 2007)
Like-named read-outs stand apart in the source and are kept apart here.

Columns and labels:
[1] = system: HIV-infected MT-4 cells; assay: Inhibition of the HIV-induced cytopathic effect in MT-4 cells (MTT); type: cell-based; conditions: for IC50: HIV-infected MT-4 cells, MTT, OD 540 nm; for SI (selectivity index, ratio of CC50 to IC50): CC50/IC50 in MT-4 cells
Procedure: (§1) A rapid, sensitive and automated assay procedure was used for the in vitro evaluation of anti-HIV agents. An […] T4-cell line, MT-4, which was previously shown (Koyanagi et al., Int. J. Cancer, 36, 445-451, 1985) to be highly susceptible to and permissive for HIV infection, served as the target cell line. Inhibition of the HIV-induced cytopathic effect was used as the end point. The viability of both HIV- and mock-infected cells was assessed spectrophotometrically via the in situ reduction of 3-(4,5-dimethylthiazol-2-yl)-2,5-diphenyltetrazolium bromide (MTT). […] The percent protection achieved by the compound in HIV-infected cells was calculated by the following formula:
(§2) [formula] whereby (ODT)HIV is the optical density measured with a given concentration of the test compound in HIV-infected cells; (ODC)HIV is the optical density measured for the control untreated HIV-infected cells; (ODC)MOCK is the optical density measured for the control untreated mock-infected cells; all optical density values were determined at 540 nm. […] The ratio of CC50 to IC50 was defined as the selectivity index (SI).

[2] = system: mock-infected MT-4 cells; assay: Cytotoxicity in mock-infected MT-4 cells (MTT); type: cell-based; conditions: read-out: CC50 (50% cytotoxic concentration), OD 540 nm
Procedure: as §1, §2

[3] = Cytotoxicity in mock-infected MT-4 cells (MTT); type: cell-based; conditions: human, OD 540 nm
Procedure: as §1, §2

[4] = read-out: IC50 (50% inhibitory concentration; dose achieving 50% protection)
[5] = Human immunodeficiency virus 1, MT4, read-out: IC50 (50% inhibitory concentration; dose achieving 50% protection)

melting point	Compound	IC50 [1, 4] [nM]	CC50 [2] [µM]	SI (selectivity index, ratio of CC50 to IC50) [1]	IC50 [1, 5] [nM]	CC50 [3] [µM]
	Cc1cc(C)c(Oc2nc(Nc3ccc(C#N)cc3)nc(C(N)=O)n2)c(C)c1 [Compound 26]	1	2			
	N#Cc1ccc(Nc2nc(Cc3c(Cl)cccc3Cl)nc(N3C(=O)CCC3=O)n2)cc1 [Compound 48]	7.9	> 200			
	Cc1cc(C)c(Oc2cc(C(F)(F)F)nc(Nc3ccc(C#N)cc3)n2)c(C)c1 [Compound 25]	79	> 100			
	CCOc1nc(Cc2c(Cl)cccc2Cl)nc(Nc2ccc(C#N)cc2)n1 [Compound 58]	25.1	50.1			
203 to 204 °C	COCc1cc(Oc2c(C)cc(C#N)cc2C)nc(Nc2ccc(C#N)cc2)n1 [Compound 2]			31621	1.58	50.1
	Cc1cc(Cl)cc(Cl)c1Nc1nc(Cl)nc(Nc2ccc(C#N)cc2)n1 [Compound 109]	3.98	12.6			
258 to 259 °C (dec.)	COC(=O)c1cc(Oc2c(C)cc(C#N)cc2C)nc(Nc2ccc(C#N)cc2)n1 [Compound 71]			>3984	25.1	> 100
	CSc1nc(Nc2ccc(C#N)cc2)nc(Nc2c(C)cc(C)cc2C)n1 [Compound 20]	2	3.98			
	N#Cc1ccc(Nc2nc(Cl)nc(Nc3c(Cl)cc(Cl)cc3Cl)n2)cc1 [Compound 85]	20	50.1			
213 to 214 °C	COCc1cc(Nc2cc(C)c(F)cc2Cl)nc(Nc2ccc(C#N)cc2)n1 [Compound 3]			>1996	50.1	> 100
	COCc1cc(Oc2c(Br)cc(C#N)cc2Br)nc(Nc2ccc(C#N)cc2)n1 [Compound 27]	10	> 10			
184 to 185 °C	CSc1nc(Cc2c(Cl)cccc2Cl)nc(Nc2ccc(C#N)cc2)n1 [Compound 7]			1990	20	39.8
